Structures can show the parent of a compound that is named as a salt.
These compounds were tested against T1, HIV integrase (Human immunodeficiency virus type 1 group M subtype B, UniProt P12497, F1332H) (assay: Determination of enzyme (HIV integrase) inhibitory activity). Details: recombinant HIV integrase (F185H), strand transfer ELISA, absorbance at 450 nm.
T1 construct: HIV integrase full length gene; made in house; host or cells: Escherichia coli BL21(DE3), plasmid pET21a-INH
Format: biochemical
How it was run: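 Full-length integrase with F185H, expressed in E. coli and purified, was reacted for 60 min at 37 °C with compound and biotinylated donor DNA bound to streptavidin plates. Target DNA was added for 10 min, then anti-digoxigenin-peroxidase detection at A450; IC50 from % inhibition versus enzyme-free blank.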
O=C1c2c(O)c(=O)c(-c3ccccn3)cn2CCN1Cc1ccc(Cl)c(Cl)c1 [Example 373, 2-(3,4-dichlorobenzyl)-9-hydroxy-7-(pyridin-2-yl)-3,4-dihydro-2H-pyrido[1,2-a]pyrazine-1,8-dione trifluoroacetate] gave an IC50 of less than 10 nM. CC(=O)CNC(=O)c1cn2c(c(O)c1=O)C(=O)N(Cc1cccc(Cl)c1)CC2 [Example 374, N-(2-oxopropyl)-2-(3-chlorobenzyl)-9-hydroxy-1,8-dioxo-1,3,4,8-tetrahydro-2H-pyrido[1,2-a]pyrazine-7-carboxamide hydrochloride] gave an IC50 of 10 to 100 nM. For O=c1c(-c2ccncc2)cn2ccn(Cc3cccc(F)c3)c(=O)c2c1O [Example 375, 2-(3-fluorobenzyl)-9-hydroxy-7-(pyridin-4-yl)-2H-pyrido[1,2-a]pyrazine-1,8-dione hydrochloride], the IC50 was 10 to 100 nM. With CC(C)(C)C(=O)c1cn2ccn(Cc3cccc(F)c3)c(=O)c2c(O)c1=O [Example 376, 7-(2,2-dimethylpropionyl)-2-(3-fluorobenzyl)-9-hydroxy-2H-pyrido[1,2-a]pyrazine-1,8-dione hydrochloride] the IC50 was 10 to 100 nM. Work on O=C(NCc1ccccc1F)c1cn2c(c(O)c1=O)C(=O)N(Cc1ccc(F)cc1)CC2 [Example 377, N-(2-fluorobenzyl)-2-(4-fluorobenzyl)-9-hydroxy-1,8-dioxo-1,3,4,8-tetrahydro-2H-pyrido[1,2-a]pyrazine-7-carboxamide] yielded an IC50 of less than 10 nM. Compound O=C(NCc1ccc(F)cc1)c1cn2c(c(O)c1=O)C(=O)N(Cc1ccc(F)cc1)CC2 [Example 378, N-(4-fluorobenzyl)-2-(4-fluorobenzyl)-9-hydroxy-1,8-dioxo-1,3,4,8-tetrahydro-2H-pyrido[1,2-a]pyrazine-7-carboxamide] has an IC50 of less than 10 nM. For CNC(=O)c1cn2c(c(O)c1=O)C(=O)N(Cc1ccc(F)cc1)CC2 [Example 379], the IC50 was 100 to 1000 nM. Work on O=C(NCc1ccccc1)c1cn2c(c(O)c1=O)C(=O)N(Cc1ccc(F)cc1)CC2 [Example 380, N-benzyl-2-(4-fluorobenzyl)-9-hydroxy-1,8-dioxo-1,3,4,8-tetrahydro-2H-pyrido[1,2-a]pyrazine-7-carboxamide] yielded an IC50 of 10 to 100 nM. In the case of CNC(=O)c1cn2c(c(O)c1=O)C(=O)N(Cc1ccc(Cl)cc1)CC2 [Example 381, N-methyl-2-(4-chlorobenzyl)-9-hydroxy-1,8-dioxo-1,3,4,8-tetrahydro-2H-pyrido[1,2-a]pyrazine-7-carboxamide], the IC50 is reported as 10 to 100 nM. With CCC(C)(C)C(=O)c1cn2ccn(Cc3ccc(F)cc3)c(=O)c2c(O)c1=O [Example 382, 7-(2,2-dimethylbutyryl)-2-(4-fluorobenzyl)-9-hydroxy-2H-pyrido[1,2-a]pyrazine-1,8-dione hydrochloride] the IC50 was 10 to 100 nM. With O=C1c2c(O)c(=O)c(-c3cnccn3)cn2CCN1Cc1ccc(Cl)c(Cl)c1 [Example 383, 2-(3,4-dichlorobenzyl)-9-hydroxy-7-(pyrazin-2-yl)-3,4-dihydro-2H-pyrido[1,2-a]pyrazine-1,8-dione hydrochloride] the IC50 was 10 to 100 nM. CC(C)C(=O)c1cn2c(c(O)c1=O)C(=O)N(Cc1ccc(Cl)c(Cl)c1)CC2 [Example 384, 2-(3,4-dichlorobenzyl)-9-hydroxy-7-isobutyryl-3,4-dihydro-2H-pyrido[1,2-a]pyrazine-1,8-dione] gave an IC50 of less than 10 nM. CC(C)C(=O)c1cn2c(c(O)c1=O)C(=O)N(Cc1ccc(F)cc1)CC2 [Example 385, 2-(4-fluorobenzyl)-9-hydroxy-7-isobutyryl-3,4-dihydro-2H-pyrido[1,2-a]pyrazine-1,8-dione] showed an IC50 of 10 to 100 nM. Work on CC(C)(C)C(=O)c1cn2c(c(O)c1=O)C(=O)N(Cc1ccc(F)cc1)CC2 [Example 386, 7-(2,2-dimethylpropionyl)-2-(4-fluorobenzyl)-9-hydroxy-3,4-dihydro-2H-pyrido[1,2-a]pyrazine-1,8-dione] yielded an IC50 of 10 to 100 nM. Compound CC(C)CC(=O)c1cn2ccn(Cc3ccc(F)cc3)c(=O)c2c(O)c1=O [Example 387, 2-(4-fluorobenzyl)-9-hydroxy-7-(3-methylbutyryl)-2H-pyrido[1,2-a]pyrazine-1,8-dione hydrochloride] has an IC50 of 10 to 100 nM. CNC(=O)c1cn2c(c(O)c1=O)C(=O)N(Cc1ccc(F)c(F)c1)CC2 [Example 388, N-methyl-2-(3,4-difluorobenzyl)-9-hydroxy-1,8-dioxo-1,3,4,8-tetrahydro-2H-pyrido[1,2-a]pyrazine-7-carboxamide] showed an IC50 of 100 to 1000 nM. Compound COCC(C)(C)C(=O)c1cn2c(c(O)c1=O)C(=O)N(Cc1ccc(F)cc1)CC2 [Example 389, 2-(4-fluorobenzyl)-9-hydroxy-7-(3-methoxy-2,2-dimethylpropionyl)-3,4-dihydro-2H-pyrido[1,2-a]pyrazine-1,8-dione] has an IC50 of 10 to 100 nM. O=c1c(-c2ccncn2)cn2ccn(Cc3cccc(Cl)c3)c(=O)c2c1O [Example 391, 2-(3-chlorobenzyl)-9-hydroxy-7-(pyrimidin-4-yl)-2H-pyrido[1,2-a]pyrazine-1,8-dione hydrochloride] was tested, and the IC50 was 10 to 100 nM. Compound O=C1c2c(O)c(=O)c(-c3ccncn3)cn2CCN1Cc1ccc(F)cc1 [Example 392, 2-(4-fluorobenzyl)-9-hydroxy-7-(pyrimidin-4-yl)-3,4-dihydro-2H-pyrido[1,2-a]pyrazine-1,8-dione hydrochloride] has an IC50 of 10 to 100 nM. Compound O=C1c2c(O)c(=O)c(-c3ccncn3)cn2CCN1Cc1ccc(Cl)cc1 [Example 393, 2-(4-chlorobenzyl)-9-hydroxy-7-(pyrimidin-4-yl)-3,4-dihydro-2H-pyrido[1,2-a]pyrazine-1,8-dione hydrochloride] has an IC50 of 10 to 100 nM. O=C1c2c(O)c(=O)c(-c3ccncn3)cn2CCN1Cc1ccc(F)c(Cl)c1 [Example 394, 2-(3-chloro-4-fluorobenzyl)-9-hydroxy-7-(pyrimidin-4-yl)-3,4-dihydro-2H-pyrido[1,2-a]pyrazine-1,8-dione hydrochloride] was tested, and the IC50 was 10 to 100 nM. O=c1c(-c2ccncn2)cn2ccn(Cc3ccc(F)c(Cl)c3)c(=O)c2c1O [Example 395, 2-(3-chloro-4-fluorobenzyl)-9-hydroxy-7-(pyrimidin-4-yl)-2H-pyrido[1,2-a]pyrazine-1,8-dione hydrochloride] showed an IC50 of less than 10 nM. Work on CCCOc1cc(Cl)cc(CN2CCn3cc(-c4nccs4)c(=O)c(O)c3C2=O)c1 [Example 396, 2-(3-chloro-5-propoxybenzyl)-9-hydroxy-7-(thiazol-2-yl)-3,4-dihydro-2H-pyrido[1,2-a]pyrazine-1,8-dione hydrochloride] yielded an IC50 of 10 to 100 nM. Compound CC(C)Oc1cc(Cl)cc(CN2CCn3cc(-c4nccs4)c(=O)c(O)c3C2=O)c1 [Example 397, 2-(3-chloro-5-isopropoxybenzyl)-9-hydroxy-7-(thiazol-2-yl)-3,4-dihydro-2H-pyrido[1,2-a]pyrazine-1,8-dione hydrochloride] has an IC50 of 10 to 100 nM. O=C1c2c(O)c(=O)c(-c3nccs3)cn2CCN1Cc1cc(Cl)cc(OCc2ccccc2)c1 [Example 398, 2-(3-benzyloxy-5-chlorobenzyl)-9-hydroxy-7-(thiazol-2-yl)-3,4-dihydro-2H-pyrido[1,2-a]pyrazine-1,8-dione hydrochloride] showed an IC50 of 10 to 100 nM. Compound O=c1c(-c2ccncn2)cn2ccn(Cc3ccc(Cl)cc3)c(=O)c2c1O [Example 399, 2-(4-chlorobenzyl)-9-hydroxy-7-(pyrimidin-4-yl)-2H-pyrido[1,2-a]pyrazine-1,8-dione hydrochloride] has an IC50 of less than 10 nM. O=C(Cc1cccnc1)Nc1cn2ccn(Cc3cccc(Cl)c3)c(=O)c2c(O)c1=O [Example 400, N-[2-(3-chlorobenzyl)-9-hydroxy-1,8-dioxo-1,8-dihydro-2H-pyrido[1,2-a]pyrazin-7-yl]-2-(pyridin-3-yl)acetamide hydrochloride] was tested, and the IC50 was less than 10 nM. For O=C(Cc1ccncc1)Nc1cn2ccn(Cc3cccc(Cl)c3)c(=O)c2c(O)c1=O [Example 401, N-[2-(3-chlorobenzyl)-9-hydroxy-1,8-dioxo-1,8-dihydro-2H-pyrido[1,2-a]pyrazin-7-yl]-2-(pyridin-4-yl)acetamide hydrochloride], the IC50 was 10 to 100 nM. O=C(Cc1ccccn1)Nc1cn2ccn(Cc3cccc(Cl)c3)c(=O)c2c(O)c1=O [Example 402, N-[2-(3-chlorobenzyl)-9-hydroxy-1,8-dioxo-1,8-dihydro-2H-pyrido[1,2-a]pyrazin-7-yl]-2-(pyridin-2-yl)acetamide hydrochloride] showed an IC50 of 10 to 100 nM. O=c1c(-c2ccncn2)cn2ccn(Cc3cccc(F)c3)c(=O)c2c1O [Example 403, 2-(3-fluorobenzyl)-9-hydroxy-7-(pyrimidin-4-yl)-2H-pyrido[1,2-a]pyrazine-1,8-dione hydrochloride] showed an IC50 of 10 to 100 nM. Work on O=c1c(-c2cnccn2)cn2ccn(Cc3cccc(F)c3)c(=O)c2c1O [Example 404, 2-(3-fluorobenzyl)-9-hydroxy-7-(pyrazin-2-yl)-2H-pyrido[1,2-a]pyrazine-1,8-dione hydrochloride] yielded an IC50 of 10 to 100 nM. Compound Cn1ncnc1-c1cn2ccn(Cc3ccc(F)c(Cl)c3)c(=O)c2c(O)c1=O [Example 405, 2-(3-chloro-4-fluorobenzyl)-9-hydroxy-7-(2-methyl-2H-1,2,4-triazol-3-yl)-2H-pyrido[1,2-a]pyrazine-1,8-dione hydrochloride] has an IC50 of less than 10 nM. Work on CC(C)(C)CC(=O)Nc1cn2c(c(O)c1=O)C(=O)N(Cc1ccc(F)c(Cl)c1)CC2 [Example 406, N-[2-(3-chloro-4-fluorobenzyl)-9-hydroxy-1,8-dioxo-1,3,4,8-tetrahydro-2H-pyrido[1,2-a]pyrazin-7-yl]-3,3-dimethylbutyramide] yielded an IC50 of 10 to 100 nM. Cc1cn(Cc2cccc(F)c2)c(=O)c2c(O)c(=O)c(-c3ccccn3)cn12 [Example 407, 2-(3-fluorobenzyl)-9-hydroxy-4-methyl-7-(pyridin-2-yl)-2H-pyrido[1,2-a]pyrazine-1,8-dione hydrochloride] was tested, and the IC50 was 10 to 100 nM. Cc1cn(Cc2ccc(F)cc2)c(=O)c2c(O)c(=O)c(C(=O)C(C)(C)C)cn12 [Example 408, 7-(2,2-dimethylpropionyl)-2-(4-fluorobenzyl)-9-hydroxy-4-methyl-2H-pyrido[1,2-a]pyrazine-1,8-dione hydrochloride] was tested, and the IC50 was 10 to 100 nM.

From patent US7211572B2 (Japan Tobacco Inc., priority 2003, dated 2007)
